Laboratory results reported in patent US8957013B2 (priority 2007, dated 2015).

Type: binding

HPNFSKYILHQR
selectivity for DNT over TNT target: selective for the DNT target
